Columns and labels:
[1] = biological target: T1, rat KCa2.2a (UniProt P0DP23+P70604); assay: Inside-out patch-clamp potentiation of KCa2.2a channels expressed in HEK293 cells; format: cell-based; conditions: for EC50: inside-out patch, HEK293, 0.15 μM Ca2+, current at −90 mV, read-out: EC50 (mean ± SEM, μM) on potentiating KCa2.2a channels; for fold higher potency on KCa2.2a channels compared to CyPPA: ratio of EC50 values vs CyPPA; for KCa2.2a/KCa2.3 subtype selectivity: vs KCa2.1 and KCa3.1
T1 construct: expressed in transfected cells; host or cells: HEK293
Description: The impact of adding one substituent group at C4 of the cyclohexane moiety of CyPPA with either electron donating (OH (2a), NH2 (2b), CH2OH (2c), and OCH3 (2d)) or electron-withdrawing groups (F (2e) and NO2 (2f)) was explored. The potency of the newly synthesized compounds compared to the template CyPPA was measured via inside-out patch clamp electrophysiology recordings with KCa2.2a channels heterologously expressed in HEK293 cells (FIG. 1A). […] The responses induced by 10 μM Ca^2+ are considered the maximal currents of the KCa2.2a channels. To evaluate the efficacy (Emax) of compounds on KCa2.2a channels, the current amplitudes at −90 mV in response to the maximal concentration of compounds were normalized to that obtained at 10 μM Ca^2+ (I/Imax (%), FIG. 1C).
(§1) The effect of newly synthesized compounds on the KCa2.x/KCa3.1 channels was investigated as previously described (Nam, Y. W.; et al, Acta Physiol (Oxf) 2020, e13552; Nam, Y. W.; et al. Scientific reports 2018, 8 (1), 10749). Briefly, the rat KCa2.2a, human KCa2.1, human KCa2.3 or human KCa3.1 channels cDNA constructs were either generated in-house or through molecular cloning services (Genscript). The channel cDNAs, along with CaM and GFP, at a ratio of 7:4:2 (ORF ratios), were transfected into HEK293 cells by the calcium-phosphate method. KCa currents were recorded 1-2 days after transfection, with an Axon200B amplifier (Molecular Devices) at room temperature. The resistance of the patch electrodes ranged from 3-5 MΩ. The pipette solution contained (in mM): 140 KCl, 10 Hepes (pH 7.4), 1 MgSO4. The bath solution containing (in mM): 140 KCl, 10 Hepes (pH 7.2), 1 EGTA, 0.1 Dibromo-BAPTA, and 1 HEDTA was mixed with Ca^2+ to obtain the desired free Ca^2+ concentrations, calculated using the software by Chris Patton of Stanford University (https://somapp.ucdmc.ucdavis.edu/pharmacology/bers/maxchelator/webmaxc/webmaxcS.htm). The Ca^2+ concentrations were verified using a Ca^2+ calibration buffer kit (Thermo Fisher Scientific). Briefly, a standard curve was generated using the Ca^2+ buffers from the kit and a fluorescence Ca^2+ indicator. Then, the Ca^2+ concentrations of the bath solution were determined through interpolation on the standard curve.
High resistance seals (>1 GΩ) were formed before inside-out patches were obtained. The seal resistance of inside-out patches was >1 GΩ, when the intracellular face was initially exposed to a zero-Ca^2+ bath solution. Currents were recorded by repetitive 1-s-voltage ramps from −100 mV to +100 mV from a holding potential of 0 mV. The currents were filtered at 2 kHz and digitized at a sampling frequency of 10 kHz. At the end of experiment, the integrity of the patch was examined by switching the bath solution back to the zero-Ca^2+ buffer. Data from patches, which maintained the seal resistance (>1 GΩ) after solution changes, were used for further analysis.
(§2) To measure the effect of CyPPA (Alomone Labs) and newly synthesized compounds, the intracellular face was exposed to bath solutions with 0.15 μM Ca^2+. One minute after switching of bath solutions, ten sweeps with a 1-s interval were recorded at a series of concentrations of compound in the presence of 0.15 μM Ca^2+. The maximal KCa2.x/KCa3.1 current in response to 10 μM Ca^2+ was then recorded.
Patch-clamp recordings were analyzed using Clampfit 10.5 (Molecular Devices LLC) and concentration-response curves were analyzed in GraphPad Prism 9.0.2 (GraphPad Software Inc.). To construct the concentration-dependent potentiation of channel activities by compound, the current amplitudes at −90 mV in response to various concentrations of the compound were normalized to that obtained at a maximal concentration of compound. The normalized currents were plotted as a function of the concentrations of the compound. EC50 values and Hill coefficients were determined by fitting the data points to a standard concentration-response curve (Y=100/(1+(X/EC50)^−Hill)). […]

[2] = biological target: T2, human KCa2.1 channel (Homo sapiens, UniProt P0DP23+Q92952); assay: Inside-out patch-clamp on KCa2.1 channels expressed in HEK293 cells; format: cell-based; conditions: for response of KCa2.1 channels: inside-out patch; for Emax: normalized to 10 μM Ca2+
T2 construct: expressed in transfected cells; host or cells: HEK293
Description: The two newly synthesized compounds, 2o and 2q, were tested to determine whether they retained their subtype-selectivity. Neither 2o (FIG. 5A) nor 2q (FIG. 5B) elicited significant responses from the human KCa2.1 channel expressed in HEK293 cells. When compared with the responses from KCa2.2a channels to these two compounds, the differences became even more apparent (FIG. 5C), with the Emax values on KCa2.2a channels at ˜90%, whereas the Emax values on KCa2.1 channels were at ˜0% (FIG. 5D).
as §1, with “The Ca^2+ concentrations were verified using a Ca^2+ calibration buffer kit (Thermo Fisher Scientific).” left out
High resistance seals (>1 GΩ) were formed before inside-out patches were obtained. […] Currents were recorded by repetitive 1-s-voltage ramps from −100 mV to +100 mV from a holding potential of 0 mV. […]
as §2
Patch-clamp recordings were analyzed using Clampfit 10.5 (Molecular Devices LLC) and concentration-response curves were analyzed in GraphPad Prism 9.0.2 (GraphPad Software Inc.). […] EC50 values and Hill coefficients were determined by fitting the data points to a standard concentration-response curve (Y=100/(1+(X/EC50)^−Hill)). […]

Row | Structure (SMILES) | EC50 [1] [µM] | fold higher potency on KCa2.2a channels compared to CyPPA [1] [fold] | KCa2.2a/KCa2.3 subtype selectivity [1] | response of KCa2.1 channels [2] | Emax [2] [%]
1 | Cc1cc(Nc2ccc(F)c(Cl)c2)nc(-n2nc(C)cc2C)n1 [Compound 2o, N-(3-Chloro-4-fluorophenyl)-2-(3,5-dimethyl-1H-pyrazol-1-yl)-6-methyl-pyrimidin-4-amine] | 0.99 ± 0.079 | ~7 | retained the KCa2.2a/KCa2.3 subtype selectivity | Lack of response | ~0
2 | Cc1cc(Nc2cc(Cl)ccc2F)nc(-n2nc(C)cc2C)n1 [Compound 2q, N-(5-Chloro-2-fluorophenyl)-2-(3,5-dimethyl-1H-pyrazol-1-yl)-6-methylpyrimidin-4-amine] | 0.64 ± 0.051 | ~10 | retained the KCa2.2a/KCa2.3 subtype selectivity | Lack of response | ~0

Source: patent US12312333B2, “SK channel positive allosteric modulators” (Chapman University, priority 2021, dated 2025)
